Measurements from patent US6433001B1, “1H-indole-3-glyoxylamide sPLA2 inhibitors” (Eli Lilly and Company, priority 1994, dated 2002).
Counter-ions that a name gives are not always drawn. Like-named read-outs stand apart in the source and are kept apart here.

Columns and labels:
[1] = target: T1, Human Secreted Phospholipase A2 (Homo sapiens, UniProt P14555); assay: chromogenic assay for inhibitors of recombinant human secreted phospholipase A2; type: biochemical
T1 sequence (P14555 21-144): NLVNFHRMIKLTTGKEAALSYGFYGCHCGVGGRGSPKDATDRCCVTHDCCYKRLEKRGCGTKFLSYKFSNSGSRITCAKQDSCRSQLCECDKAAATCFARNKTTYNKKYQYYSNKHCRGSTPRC
Procedure: The following chromogenic assay procedure was used to identify and evaluate inhibitors of recombinant human secreted phospholipase A2. The assay described herein has been adapted for high volume screening using 96 well microtiter plates.
Adjust pH to 4.5 with acetic acid
DTNB—5,5′-dithiobis-2-nitrobenzoic acid
RACEMIC DIHEPTANOYL THIO—PC
racemic 1,2-bis(heptanoylthio)-1,2-dideoxy-sn-glycero-3-phosphorylcholine
TRITON X-100™ prepare at 6.249 mg/ml in reaction buffer to equal […].
A measured volume of racemic dipheptanoyl thio PC supplied in chloroform at a concentration of 100 mg/ml is taken to dryness and redissolved in 10 millimolar TRITON X-100™ nonionic detergent aqueous solution.
Reaction Buffer is added to the solution, then DTNB to give the Reaction Mixture.
The reaction mixture thus obtained contains 1 mM diheptanoly thio-PC substrate, 0.29 mm Triton X-100™ detergent, and 0.12 mm DTMB in a buffered aqueous solution at pH 7.5.
1. Add 0.2 ml reaction mixture to all wells;
2. Add 10 ul test compound (or solvent blank) to appropriate wells, mix 20 seconds;
3. Add 50 nanograms of sPLA2 (10 microliters) to appropriate wells;
4. Incubate plate at 40° C. for 30 minutes;
5. Read absorbance of wells at 405 nanometers with an automatic plate reader.
All compounds were tested in triplicate. […] Lack of color development at 405 nanometers evidenced inhibition. […] In all cases, % inhibition measured at 405 nanometers generated by enzyme reactions containing inhibitors relative to the uninhibited control reactions was determined. Each sample was titrated in triplicate and result values were averaged for plotting and calculation of IC50 values.

[2] = target: T1, Human Secreted Phospholipase A2; assay: guinea pig lung pleural strip tissue test, sPLA2-induced contraction; type: cell-based; details: guinea pig lung pleural strips; compound added 30 min. prior to sPLA2 concentration-response curves; pA2 interpreted as apparent KB; read-out: Tissue test secreted PLA2 Apparent KB
Description: Male Hartley strain guinea pigs (500-700 g) were killed by cervical dislocation and their heart and lungs removed intact and placed in aerated (95% O2:5% CO2) Krebs buffer. Dorsal pleural strips (4×1×25 mm) were dissected from intact parenchymal segments (8×4×25 mm) cut parallel to the outer edge of the lower lung lobes. Two adjacent pleural strips, obtained from a single lobe and representing a single tissue sample, were tied at either end and independently attached to a metal support rod. One rod was attached to a Grass force-displacement transducer (Model FTO3C, product of Grass Medical Instruments Co., Quincy, Mass., USA). […] All tissues were placed in 10 ml jacketed tissue baths maintained at 37° C. The tissue baths were continuously aerated and contained a modified Krebs solution of the following composition (millimolar) NaCl, 118.2; KCl, 4.6; CaCl2.2H2O, 2.5; MgSO4.7H2O, 1.2; NaHCO3, 24.8; KH2PO4, 1.0; and dextrose 10.0. Pleural strips from the opposite lobes of the lung were used for paired experiments. […] The tissues were allowed to equilibrate for 45 min. as the bath fluid was changed periodically.
Initially tissues were challenged 3 times with KCl (40 mM) to test tissue viability and to obtain a consistent response. After recording the maximal response to KCl, the tissues were washed and allowed to return to baseline before the next challenge. Cumulative concentration-response curves were obtained from pleural strips by increasing the agonist concentration (sPLA2) in the tissue bath by half-log10 increments while the previous concentration remained in contact with the tissues (Ref.1, supra.) Agonist concentration was increased after reaching the plateau of the contraction elicited by the preceding concentration. One concentration-response curve was obtained from each tissue. To minimize variability between tissues obtained from different animals, contractile responses were expressed as a percentage of the maximal response obtained with the final KCl challenge. When studying the effects of various drugs on the contractile effects of sPLA2, the compounds and their respective vehicles were added to the tissues 30 min. prior to star ting the sPLA2 concentration-response curves.
Data from different experiments were pooled and presented as a percentage of the maximal KCl responses (mean±S.E.). […] 163, (Ref.2) The model includes four parameters: the maximum tissue response which was assumed the same for each curve, the ED50 for the control curve, the steepness of the curves, and the pA2, the concentration of antagonist that requires a two-fold increase in agonist to achieve an equivalent response. […] 164 (Ref. 2).
To estimate the drug-induced suppression of the maximal responses, siPLA2 responses (10 ug/ml) were determined in the absence and presence of drug, and percent suppression was calculated for each pair of tissues.

[3] = diheptanoyl thio-PC substrate, pH 7.5, 40° C. for 30 minutes, absorbance at 405 nanometers, read-out: Inhibition of human secreted PLA2 IC50 ± mean deviation (3-4 tests)

SMILES	IC50 [1, 3] [nM]	IC50 [1] [nM]	further results
Cc1c(C(=O)C(N)=O)c2c(OC(C)C(=O)O)cccc2n1Cc1ccccc1 (racemic) [Example 2, dl-2-[[3-(2-Amino-1,2-dioxoethyl)-2-methyl-1-(phenylmethyl)-1H-indol-4-yl]oxy]propanoic Acid]	9 ± 1.73		
NC(=O)C(=O)c1c(C2CC2)n(Cc2ccccc2-c2ccccc2)c2cccc(OCC(=O)O)c12 [Example 14, [[3-(2-Amino-1,2-dioxoethyl)-1-([1,1′-biphenyl]-2-ylmethyl)-2-cyclopropyl-1H-indol-4-yl]oxy]acetic Acid]		5.57 ± 2.89	Kb [2]: 75 ± 9 nM
NC(=O)C(=O)c1cn(Cc2ccccc2)c2ccc(OCCCC(=O)O)cc12 [Example 16, 4-[[3-(2-Amino-1,2-dioxoethyl)-1-(phenylmethyl)-H-indol-5-yl]oxy]butanoic Acid]	62000		activity in inhibiting sPLA2 (in words) ([1]; comment on Table I): much less active
CCCc1c(C(=O)C(N)=O)c2c(OCC(=O)O)cccc2n1Cc1ccccc1-c1ccccc1 [Example 12, [[3-(2-amino-1,2-dioxoethyl)-1-([1,1′-biphenyl]-2-ylmethyl)-2-propyl-1H-indol-4-yl]oxy]acetic Acid]	82.2 ± 18		
CCc1c(C(=O)C(N)=O)c2c(OCC(=O)O)cccc2n1Cc1ccccc1-c1ccccc1 [Example 11, [[3-(2-Amino-1,2-dioxoethyl)-1-([1,1′-biphenyl]-2-ylmethyl)-2-ethyl-1H-indol-4-yl]oxy]acetic Acid]		4.33 ± 2.31	Kb [2]: 57 ± 11 nM
Cc1c(C(=O)C(N)=O)c2c(OCC(=O)O)cccc2n1Cc1ccc(-c2ccccc2)cc1 [Example 5, [[3-(2-Amino-1,2-dioxoethyl)-1-([1,1′-biphenyl]-4-ylmethyl)-2-methyl-1H-indol-4-yl]oxy]acetic Acid]		49 ± 11.5	
Cc1c(C(=O)C(N)=O)c2c(OCC(=O)O)cccc2n1Cc1ccc(F)cc1 [Example 7, [[3-(2-Amino-1,2-dioxoethyl)-1-[4(-fluorophenyl)methyl]-2-methyl-1H-indol-4-yl]oxy]acetic Acid]		6 ± 1	
NC(=O)C(=O)c1c(C2CC2)n(Cc2ccccc2)c2cccc(OCC(=O)O)c12 [Example 13, [[3-(2-Amino-1,2-dioxoethyl)-2-cyclopropyl-1-(phenylmethyl)-1H-indol-4-yl]oxy]acetic Acid]		27.6 ± 13.1	
Cc1c(C(=O)C(N)=O)c2c(OCC(=O)O)cccc2n1Cc1ccccc1-c1ccccc1 [Example 3, [[3-(2-Amino-1,2-dioxoethyl)-1-([1,1′-biphenyl]-2-ylmethyl)-2-methyl-1H-indol-4-yl]oxy]acetic Acid]		5.33 ± 1.15	
CCc1c(C(=O)C(N)=O)c2c(OCC(=O)O)cccc2n1Cc1cccc(Cl)c1 [Example 10, [[3-(2-Amino-1,2-dioxoethyl)-1-[(3-chlorophenyl)methyl]-2-ethyl-1H-indol-4-yl]oxy]acetic Acid]		6.67 ± 2.89	
Cc1c(C(=O)C(N)=O)c2c(OCC(=O)O)cccc2n1Cc1cccc2ccccc12 [Example 8, [[3-(2-Amino-1,2-dioxoethyl)-2-methyl-1-[(1-naphthalenyl)methyl]-1H-indol-4-yl]oxy]acetic Acid]		32.8 ± 7.04	
CCc1c(C(=O)C(N)=O)c2cc(OCCCC(=O)O)ccc2n1Cc1ccccc1 [Example 15]	210 ± 60		
CCc1c(C(=O)C(N)=O)c2c(NCC(=O)O)cccc2n1Cc1ccccc1 [Example 17, [[3-(Aminooxoacetyl)-2-ethyl-1-(phenylmethyl)-1H-indol-4-yl]amino]acetic Acid]	1150 ± 120		
Cc1c(C(=O)C(N)=O)c2c(OCC(=O)O)cccc2n1Cc1c(Cl)cccc1Cl [Example 6, [[3-(2-Amino-1,2-dioxoethyl)-1-[(2,6-dichlorophenyl)methyl]-2-methyl-1H-indol-4-yl]oxy]acetic Acid]	6 ± 1		
Cc1c(C(=O)C(N)=O)c2c(OCC(=O)O)cccc2n1Cc1ccccc1-c1ccccc1 [3 (Na salt), [[3-(2-amino-1,2-dioxoethyl)-1-([1,1′-biphenyl]-2-ylmethyl)-2-methyl-1H-indol-4-yl]oxy]acetic acid, sodium salt]			Kb [2]: 67.6 ± 11.8 nM
CCc1c(C(=O)C(N)=O)c2c(OCC(=O)O)cccc2n1Cc1cccc(Cl)c1 [10 (Na salt), [[3-(2-amino-1,2-dioxoethyl)1-[(3-chlorophenyl)methyl]-2-ethyl-1H-indol-4-yl]oxy]acetic acid, sodium salt]			Kb [2]: 110 ± 10 nM
Cc1c(C(=O)C(N)=O)c2c(OCC(=O)O)cccc2n1Cc1cccc(-c2ccccc2)c1 [Example 4, [[3-(2-Amino-1,2-dioxoethyl)-1-([1,1′-biphenyl]-3-ylmethyl)-2-methyl-1H-indol-4-yl]oxy]acetic Acid]		9.69 ± 1.14	
Cc1c(C(=O)C(N)=O)c2c(OCC(=O)O)cccc2n1Cc1ccccc1 [Example 1, [[3-(2-Amino-1,2-dioxoethyl)-2-methyl-1-(phenylmethyl)-1H-indol-4-yl]oxy]acetic Acid]		10.7 ± 5.51	Kb [2]: 143 ± 67 nM
